Settings: pH 3.0, coffee solution, 60 min

## OO [0.01% hydrogen peroxide solution, hydrogen peroxide]
40 ± 1°C, 325 nm, laccase 0.25 wt.% raw material (0.0875 wt.% active), hydrogen peroxide 0.01%
  Degradation of melanoidins and phenolic organic compounds, %: -6.0%
  activity against melanoidins and phenolic organic compounds (in words): low degradation

Reference: patent EP4385491A1, “PH-STABLE BIOTECHNOLOGY COMPOSITION BASED ON LACCASE FOR TARGETED DEGRADATION OF COLOURED MELANOIDINES AND/OR PHENOLIC ORGANIC COMPOUNDS ON DENSE SURFACES” (SkyLab AG, priority 2022, dated 2024)
